Experimental data from ChEMBL document CHEMBL5137095, “N-Benzyl Benzamide Derivatives as Selective Sub-Nanomolar Butyrylcholinesterase Inhibitors for Possible Treatment in Advanced Alzheimer's Disease” (J Med Chem, 2022).

Columns and labels:
[1] = test system: BV-2; experiment: Cytotoxicity against mouse BV-2 cells assessed as reduction in cell viability at 10 uM by MTT assay; assay type: toxicity, cell-based; conditions: bv-2, 10 µM
[2] = n-octanol-water partition coefficient, log P of the compound by HPLC analysis; assay type: physicochemical
[3] = Permeability of compound incubated for 18 hrs by PAMPA-BBB assay; assay type: ADME; conditions: read-out: permeability
[4] = test system: HT-22; experiment: Cytotoxicity against mouse HT-22 cells assessed as reduction in cell viability at 10 uM by MTT assay; assay type: toxicity, cell-based; conditions: ht-22, 10 µM
[5] = test system: PC-12; experiment: Cytotoxicity against rat PC-12 cells assessed as reduction in cell viability at 10 uM by MTT assay; assay type: toxicity, cell-based; conditions: pc-12, 10 µM
[6] = test system: SH-SY5Y; experiment: Cytotoxicity against human SH-SY5Y cells assessed as reduction in cell viability at 10 uM by MTT assay; assay type: toxicity, cell-based
[7] = Cytotoxicity against mouse BV-2 cells assessed as cell survival rate at 10 uM by MTT assay; assay type: toxicity, cell-based; conditions: read-out: Activity
[8] = Cytotoxicity against mouse HT-22 cells assessed as cell survival rate at 10 uM by MTT assay; assay type: toxicity, cell-based; conditions: read-out: Activity
[9] = Cytotoxicity against rat PC-12 cells assessed as cell survival rate at 10 uM by MTT assay; assay type: toxicity, cell-based; conditions: read-out: Activity
[10] = Cytotoxicity against human SH-SY5Y cells assessed as cell survival rate at 10 uM by MTT assay; assay type: toxicity, cell-based; conditions: read-out: Activity
[11] = test system: PC-12; experiment: Neuroprotective activity against H2O2-induced cell damage in rat PC-12 cells assessed as survival rate at 5 to 10 uM pretreated for 2 hrs followed by H2O2 addition and measured after 24 hrs by MTT assay; assay type: functional; conditions: dose 5-10 µM, time 26 hrs
[12] = test system: SH-SY5Y; experiment: Neuroprotective activity against amyloid beta (1 to 42)-induced cell damage in human SH-SY5Y cells assessed as cell survival rate at 25 uM pretreated for 2 hrs followed by amyloid beta (1 to 42) addition and measured after 24 hrs by MTT assay; assay type: functional; conditions: time 26 hrs
[13] = test system: SH-SY5Y; experiment: Neuroprotective activity against amyloid beta (1 to 42)-induced cell damage in human SH-SY5Y cells assessed as cell survival at 2 uM pretreated for 2 hrs followed by amyloid beta (1 to 42) addition and measured after 24 hrs by MTT assay; assay type: functional; conditions: time 26 hrs, read-out: Activity
[14] = test system: SH-SY5Y; experiment: Neuroprotective activity against amyloid beta (1 to 42)-induced cell damage in human SH-SY5Y cells assessed as cell survival at 5 uM pretreated for 2 hrs followed by amyloid beta (1 to 42) addition and measured after 24 hrs by MTT assay; assay type: functional; conditions: time 26 hrs, read-out: Activity
[15] = test system: BV-2; experiment: Cytotoxicity against mouse BV-2 cells assessed as reduction in cell viability at 20 uM by MTT assay; assay type: toxicity, cell-based; conditions: bv-2, 20 µM
[16] = molecular target: T1, Cholinesterase (Homo sapiens, UniProt P06276); experiment: Inhibition of human BChE using acetylthiocholine iodide or butyrylthiocholine iodide as substrate preincubated for 5 mins followed by substrate addition by Ellman's method
[17] = molecular target: T1, Cholinesterase; experiment: Inhibition of human BChE assessed as inhibition constant
[18] = molecular target: T1, Cholinesterase; experiment: Binding affinity to human BChE assessed as dissociation constant by surface plasmon resonance assay
[19] = test system: HT-22; experiment: Cytotoxicity against mouse HT-22 cells assessed as reduction in cell viability at 20 uM by MTT assay; assay type: toxicity, cell-based; conditions: ht-22, 20 µM
[20] = test system: PC-12; experiment: Cytotoxicity against rat PC-12 cells assessed as reduction in cell viability at 20 uM by MTT assay; assay type: toxicity, cell-based; conditions: pc-12, 20 µM
[21] = test system: SH-SY5Y; experiment: Cytotoxicity against human SH-SY5Y cells assessed as reduction in cell viability at 20 uM by MTT assay; assay type: toxicity, cell-based
[22] = Acute toxicity in ICR mouse assessed as death at 1000 mg/kg, po measured after 4 hrs; assay type: organism-based; conditions: in vivo
[23] = Acute toxicity in ICR mouse assessed as effect on consumption of water and food at 1000 mg/kg, po measured after 14 days; assay type: organism-based; conditions: in vivo, 336 h, time 14 day
[24] = Acute toxicity in ICR mouse assessed as increase in body weight at 1000 mg/kg, po measured after 14 days; assay type: organism-based; conditions: in vivo, 336 h, time 14 day
[25] = Elimination half life in Sprague-Dawley rat at 10 mg/kg, IG measured after 48 hrs by LC-MS analysis; assay type: ADME, organism-based; conditions: in vivo, po, read-out: beta t1/2 (converted)
[26] = Elimination half life in Sprague-Dawley rat at 10 mg/kg, iv measured after 48 hrs by LC-MS analysis; assay type: ADME, organism-based; conditions: in vivo, read-out: beta t1/2 (converted)
[27] = Tmax in Sprague-Dawley rat at 10 mg/kg, IG measured after 48 hrs by LC-MS analysis; assay type: ADME, organism-based; conditions: in vivo, po
[28] = Tmax in Sprague-Dawley rat at 10 mg/kg, iv measured after 48 hrs by LC-MS analysis; assay type: ADME, organism-based; conditions: in vivo
[29] = Cmax in Sprague-Dawley rat at 10 mg/kg, IG measured after 48 hrs by LC-MS analysis; assay type: ADME, organism-based; design: time 48 hrs, dose 10 mg/kg, route ig; conditions: in vivo, po
[30] = Cmax in Sprague-Dawley rat at 10 mg/kg, iv measured after 48 hrs by LC-MS analysis; assay type: ADME, organism-based; design: dose 10 mg/kg, time 48 hrs, route iv; conditions: in vivo
[31] = AUC (0 to infinitive) in Sprague-Dawley rat at 10 mg/kg, IG measured after 48 hrs by LC-MS analysis; assay type: ADME, organism-based; design: dose 10 mg/kg, time 48 hrs, route ig; conditions: in vivo, po
[32] = AUC (0 to infinitive) in Sprague-Dawley rat at 10 mg/kg, iv measured after 48 hrs by LC-MS analysis; assay type: ADME, organism-based; design: time 48 hrs, dose 10 mg/kg, route iv; conditions: in vivo
[33] = Oral bioavailability in Sprague-Dawley rat at 10 mg/kg measured after 48 hrs by LC-MS analysis; assay type: ADME, organism-based; conditions: in vivo
[34] = Microsomal stability in human liver microsomes assessed as half life measured after 120 mins; assay type: ADME, Microsome
[35] = Plasma concentration in ICR mouse at 10 mg/kg, po measured at 0.25 hrs by LC-MS analysis; assay type: ADME, organism-based
[36] = Plasma concentration in ICR mouse at 10 mg/kg, IG measured at 0.5 hrs by LC-MS analysis; assay type: ADME, organism-based; conditions: po
[37] = Plasma concentration in ICR mouse at 10 mg/kg, po measured at 1 hr by LC-MS analysis; assay type: ADME, organism-based
[38] = Plasma concentration in ICR mouse at 10 mg/kg, IG measured at 2 hrs by LC-MS analysis; assay type: ADME, organism-based; conditions: po
[39] = Plasma concentration in ICR mouse at 10 mg/kg, IG measured at 4 hrs by LC-MS analysis; assay type: ADME, organism-based; conditions: po
[40] = Plasma concentration in ICR mouse at 10 mg/kg, IG measured at 6 hrs by LC-MS analysis; assay type: ADME, organism-based; conditions: po
[41] = Brain concentration in ICR mouse at 10 mg/kg, IG measured at 0.25 hrs by LC-MS analysis; assay type: ADME, organism-based; conditions: po, read-out: Ct
[42] = Brain concentration in ICR mouse at 10 mg/kg, IG measured at 0.5 hrs by LC-MS analysis; assay type: ADME, organism-based; conditions: po, read-out: Ct
[43] = Brain concentration in ICR mouse at 10 mg/kg, IG measured at 1 hr by LC-MS analysis; assay type: ADME, organism-based; conditions: po, read-out: Ct
[44] = Brain concentration in ICR mouse at 10 mg/kg, IG measured at 2 hrs by LC-MS analysis; assay type: ADME, organism-based; conditions: po, read-out: Ct
[45] = Brain concentration in ICR mouse at 10 mg/kg, IG measured at 4 hrs by LC-MS analysis; assay type: ADME, organism-based; conditions: po, read-out: Ct
[46] = Brain concentration in ICR mouse at 10 mg/kg, IG measured at 6 hrs by LC-MS analysis; assay type: ADME, organism-based; conditions: po, read-out: Ct
[47] = molecular target: Cholinesterase (Equus caballus, UniProt P81908); experiment: Inhibition of horse serum BChE using acetylthiocholine iodide or butyrylthiocholine iodide as substrate preincubated for 5 mins followed by substrate addition by Ellman's method
[48] = test system: SH-SY5Y; experiment: Neuroprotective activity against GA-induced cell damage in human SH-SY5Y cells assessed as survival rate at 5 uM pretreated for 2 hrs followed by GA addition and measured after 24 hrs by MTT assay; assay type: functional
[49] = Acute toxicity in ICR mouse assessed as abnormal behavior at 1000 mg/kg, po measured after 4 hrs; assay type: organism-based; conditions: in vivo

T1 sequence (P06276 whole entry): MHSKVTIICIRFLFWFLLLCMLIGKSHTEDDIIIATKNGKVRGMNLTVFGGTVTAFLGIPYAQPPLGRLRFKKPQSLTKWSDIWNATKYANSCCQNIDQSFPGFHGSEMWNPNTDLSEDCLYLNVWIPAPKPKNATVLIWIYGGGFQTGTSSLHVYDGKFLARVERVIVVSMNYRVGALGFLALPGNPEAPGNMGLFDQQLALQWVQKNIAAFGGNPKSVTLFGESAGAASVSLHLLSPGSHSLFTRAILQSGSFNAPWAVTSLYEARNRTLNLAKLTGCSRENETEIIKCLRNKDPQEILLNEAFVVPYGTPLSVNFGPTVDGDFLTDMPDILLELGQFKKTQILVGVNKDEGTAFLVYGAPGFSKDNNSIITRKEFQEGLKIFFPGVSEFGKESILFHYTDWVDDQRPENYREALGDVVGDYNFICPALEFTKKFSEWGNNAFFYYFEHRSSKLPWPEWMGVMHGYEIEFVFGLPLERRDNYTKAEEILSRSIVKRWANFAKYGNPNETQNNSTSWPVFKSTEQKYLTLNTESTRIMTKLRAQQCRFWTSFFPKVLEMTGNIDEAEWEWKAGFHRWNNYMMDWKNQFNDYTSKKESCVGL
Cholinesterase (Equus caballus, UniProt P81908), sequence (P81908 whole entry): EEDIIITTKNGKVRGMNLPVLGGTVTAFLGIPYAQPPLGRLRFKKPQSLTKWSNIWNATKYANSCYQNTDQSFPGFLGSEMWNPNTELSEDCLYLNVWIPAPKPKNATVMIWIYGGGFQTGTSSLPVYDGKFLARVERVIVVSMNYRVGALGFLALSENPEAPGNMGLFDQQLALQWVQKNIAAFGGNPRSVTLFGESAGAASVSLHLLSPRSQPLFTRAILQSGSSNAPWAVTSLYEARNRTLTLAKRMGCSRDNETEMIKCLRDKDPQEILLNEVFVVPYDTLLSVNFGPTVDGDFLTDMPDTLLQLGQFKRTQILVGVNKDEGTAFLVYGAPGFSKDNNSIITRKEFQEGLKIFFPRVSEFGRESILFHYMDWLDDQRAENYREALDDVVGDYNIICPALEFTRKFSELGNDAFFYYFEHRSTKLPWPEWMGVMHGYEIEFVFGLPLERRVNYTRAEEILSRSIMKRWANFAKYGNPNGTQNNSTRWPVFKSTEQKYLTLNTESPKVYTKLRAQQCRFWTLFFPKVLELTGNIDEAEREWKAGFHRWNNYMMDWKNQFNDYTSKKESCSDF

CN(C)Cc1ccccc1CNC(=O)c1cccc(NC(=O)c2cccs2)c1
Activity [1]: Non-Toxic | logP [2]: 1.93 | Papp at 18 h [3]: 6.82 ×10⁻⁶ cm/s | Activity [4]: Non-Toxic | Activity [5]: Non-Toxic | Activity [6]: Non-Toxic | viability at 10 µM [7]: > 70% | viability at 10 µM [8]: > 70% | viability at 10 µM [9]: > 70% | viability at 10 µM [10]: > 70% | Activity [11]: 61.7% | Activity [12]: 64.12% | viability at 2 µM [13]: 82.6% | viability at 5 µM [14]: 68%

CCN(CC)Cc1ccccc1CNC(=O)c1cccc(NC(=O)c2ccc(F)cc2)c1
Activity [15]: Non-Toxic | Activity [1]: Non-Toxic | IC50 [16]: 0.08 nM | Ki [17]: 0.61 nM | Kd [18]: 0.37 nM | logP [2]: 1.7 | Papp at 18 h [3]: 10.2 ×10⁻⁶ cm/s | Activity [4]: Non-Toxic | Activity [5]: Non-Toxic | Activity [6]: Non-Toxic | viability at 10 µM [7]: > 70% | viability at 10 µM [8]: > 70% | viability at 10 µM [9]: > 70% | viability at 10 µM [10]: > 70% | Activity [19]: Non-Toxic | Activity [20]: Non-Toxic | Activity [21]: Non-Toxic | Activity [11]: 61.7% | Activity [12]: 64.12% | viability at 2 µM [13]: 68% | Activity [22]: Non-Toxic | Activity [23]: Non-Toxic | Activity [24]: Non-Toxic | half-life [25]: 28.1 h | half-life [26]: 17.2 h | Tmax [27]: 0.63 h | Tmax [28]: 6 min | Cmax [29]: 36.4 ng/mL | Cmax [30]: 1640 ng/mL | AUC(0-inf) [31]: 497 ng·h/mL | AUC(0-inf) [32]: 2170 ng·h/mL | bioavailability [33]: 21.7% | half-life [34]: 1.55 h | concentration at 0.25 h [35]: 25.7 ng/mL | concentration at 0.5 h [36]: 30.2 ng/mL | concentration at 1 h [37]: 20.9 ng/mL | concentration at 2 h [38]: 18.4 ng/mL | concentration at 4 h [39]: 17.4 ng/mL | concentration at 6 h [40]: 2.95 ng/mL | concentration at 0.25 h [41]: 25.4 ng/g | concentration at 0.5 h [42]: 26.8 ng/g | concentration at 1 h [43]: 37.5 ng/g | concentration at 2 h [44]: 17.7 ng/g | concentration at 4 h [45]: 16.4 ng/g | concentration at 6 h [46]: 15.3 ng/g

CCN(CC)Cc1ccccc1CNC(=O)c1cc(Br)cc(NC(=O)c2ccc(F)cc2)c1
IC50 [47]: 0.42 nM | IC50 [16]: 0.58 nM | logP [2]: 2.04 | Papp at 18 h [3]: 6.93 ×10⁻⁶ cm/s | Activity [48]: 70%

CCN(CC)Cc1ccccc1CNC(=O)c1cc(C)cc(NC(=O)c2ccc(F)cc2)c1
IC50 [47]: 0.021 nM | IC50 [16]: 0.039 nM | Ki [17]: 0.094 nM | Kd [18]: 0.064 nM | logP [2]: 1.26 | Papp at 18 h [3]: 9.17 ×10⁻⁶ cm/s | Activity [49]: Non-Toxic | Activity [23]: Non-Toxic | Activity [24]: Non-Toxic
